Legend:
TLR4 = target: T1, TLR4 (Homo sapiens, UniProt O00206); test: TLR4 assay: unbound TLR4 ELISA in PMA-stimulated THP-1 cell lysates; assay type: binding; conditions: THP-1 human monocyte cells
T1 construct: Cell lysates were prepared, total protein was quantified and treated with different concentrations; host or cells: THP-1 cells stimulated with PMA for 48 h, then lysed
Method: FIG. 26A, TLR4 assay: 1×10^5 THP cells (ATCC) were seeded in 24 well plates and stimulated with phorbol myristyl actetate (PMA, 200 ng/mL) for 48 h. Cell lysates were prepared, total protein was quantified and treated with different concentrations (4, 16, 62.5 and 250 μM) of the AVR-48 for 2 h. ELISA was performed after to assess unbound TLR4 following manufacturer's instruction (Raybiotech). TLR4 IC50 of the AVR-48 was calculated using GraphPad Prism7.04.

pre-term lamb BPD model [1] = test: Pre-term lamb BPD model: lung histopathology and radial alveolar count; assay type: in vivo
Description: Detailed methods have been published previously by Reyburn et al. and Null et al (Reyburn, Li et al. 2008, Null, Alvord et al. 2014), relevant portions incorporated herein by reference. All protocols have been adhered to APS/NIH guidelines for animal research and have been approved by the Institution Animal Care and Use Committees (IACUC) at the University of Utah. Lung injury in PT neonates, including PT lambs, that are mechanically ventilated (MV) is the classical picture of alveolar simplification. Alveolar simplification is evident as distended terminal respiratory units that have few secondary septa and thick, cellular mesenchyme.
The micrographs show terminal respiratory units (TRU) of the lung at the same magnification. […] Radial alveolar count is the number of tissue intersections across a terminal respiratory unit, from the center of the respiratory bronchiole to the perimeter of the terminal respiratory unit.

hPBMC = test: Secreted IL-10 and LPS induced TNF-α in hPBMC by ELISA; assay type: cell-based, human
Method: FIG. 26 C, Pretreatment (24 h) of AVR-48 to hPBMC followed by 6h of treatment with LPS (25 ng/ml) decreased the secreted TNF-α production in hPBMC cell supernatants. N=3.**p<0.01, ***p<0.001. One-way ANOVA.

[2] = PK study in rat pups by SC or IV (plasma, BALF); assay type: in vivo; conditions: for accumulation ratio using AUC(0-t): BALF, SC
[3] = test system: hyperoxia-exposed BPD mouse model; test: BPD mouse model: flow cytometry of lung immune cell populations; assay type: in vivo
Method: AVR-48 normalizes two important innate immune cell populations in animals with BPD. Based on the affinity of AVR-48 for TLR4 and the increased TLR4 expression in AVR-48 treated BPD animals, the inventors determined if there would be an impact on immune cell recruitment to the lung interstitium. Flow cytometry was performed to determine absolute numbers of key immune cell populations in the lung of neonatal mice pups from AVIS-48-treated and untreated animals in the RA and BPD groups. […] All other cell populations were similar (FIG. 11).

[4] = test system: human lung alveolar type I epithelial cells (AT1); test: TNF-α and nitric oxide in human lung alveolar type I epithelial cells co-treated with LPS; assay type: cell-based
pre-term lamb BPD model [5] = test: Pre-term lamb BPD model: respiratory system mechanics by forced oscillation technique; assay type: in vivo
Description: Forced oscillation technique (FOT) allows non-invasive measurement of respiratory system (rs) impedance (Zrs) in uncooperative subjects by applying a pressure stimulus at the airway opening and measuring the resulting flow. The inventors have shown that FOT provides reliable noninvasive measurement of respiratory system mechanics in spontaneously breathing, normal term lambs from birth through the first 5 months of life (Dahl, Bowen et al. 2018). The methods and normal reference values defined in this study provide normal physiological context for determining the pathophysiological consequences of preterm birth.

[6] = test system: Primary splenocytes of C57BL/6J mice; test: Polarization of mouse primary splenocytes, FACS; assay type: cell-based
Method: Primary splenocytes of C57BL/6J mice (n=3-5) were treated of AVR 48 for 72 hrs. PMA (200 ng/mL) was used as a positive control. The cells were washed and stained for CD11b and MHC-II and were analyzed by FACS. Dead cells were excluded by Live/dead staining during analysis. It was observed that the expression levels of MHC-II and CD11b increased upon AVR48 stimulation in a dose dependent manner in splenocytes. Monocytes were further analyzed for Ly6c. As described by (Swirski et al, J Clin Invest, 2007, 117(1):195-205. doi: 10.1172/JCI29950), spleen cells with LY6c Hi are considered as inflammatory whereas Ly6c low as resident and anti-inflammatory (FIG. 24A). Next, live singlet cells that were CD11b hi and CD11c low, were gated for F4/80 and MHC-II expression. Cells having increased expression of F4/80 and MHC-II were considered as macrophages whereas cells having low expression of F4/80 were considered as monocytes.

[7] = AVR-48-treated RA animals vs RA animals
[8] = treated vs untreated BPD animals, similar to RA control

T1 sequence (O00206 24-839): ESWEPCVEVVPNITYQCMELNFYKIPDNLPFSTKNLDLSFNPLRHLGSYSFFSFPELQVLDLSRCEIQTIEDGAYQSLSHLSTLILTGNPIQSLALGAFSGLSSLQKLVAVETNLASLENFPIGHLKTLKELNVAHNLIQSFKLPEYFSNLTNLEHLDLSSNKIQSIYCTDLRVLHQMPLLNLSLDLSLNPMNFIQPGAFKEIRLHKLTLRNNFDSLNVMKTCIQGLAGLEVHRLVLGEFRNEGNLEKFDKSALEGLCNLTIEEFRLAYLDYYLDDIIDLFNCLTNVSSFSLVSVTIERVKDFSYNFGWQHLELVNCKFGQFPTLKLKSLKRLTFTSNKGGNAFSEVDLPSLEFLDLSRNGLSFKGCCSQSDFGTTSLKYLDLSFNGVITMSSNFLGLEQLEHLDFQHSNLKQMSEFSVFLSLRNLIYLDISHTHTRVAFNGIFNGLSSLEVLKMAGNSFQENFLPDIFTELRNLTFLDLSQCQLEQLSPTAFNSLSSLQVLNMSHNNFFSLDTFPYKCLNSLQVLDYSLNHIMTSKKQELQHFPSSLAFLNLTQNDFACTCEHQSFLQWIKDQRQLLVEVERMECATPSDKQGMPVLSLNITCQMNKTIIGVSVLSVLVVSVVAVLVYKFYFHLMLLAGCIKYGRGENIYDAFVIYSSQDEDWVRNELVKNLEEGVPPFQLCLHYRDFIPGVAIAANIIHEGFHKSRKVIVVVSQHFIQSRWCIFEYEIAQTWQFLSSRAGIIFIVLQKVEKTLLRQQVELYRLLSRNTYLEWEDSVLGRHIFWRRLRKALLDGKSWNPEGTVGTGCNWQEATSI

CC(=O)N[C@@H]1C(Oc2ccc([N+](=O)[O-])cc2)OC(CO)C(O)C1O (stereo partly shown) [AVR-48]
binding to TLR4 (TLR4): binds to TLR4
binding to TLR4 (TLR4; listed as 8): bind TLR4
radial alveolar count / alveoli formation (pre-term lamb BPD model [1]; 3.0 mg/Kg, preliminary results): promotes alveoli formation
alveolar simplification (lung histopathology) (pre-term lamb BPD model [1]; vs vehicle treated PT lamb): significantly improved
secreted TNF-α production (hPBMC; 24 h pretreatment followed by 6 h LPS (25 ng/ml)): decreased
secreted IL-10 levels (hPBMC; hPBMC supernatant, 24 h post treatment): dose dependently increased
accumulation ratio using AUC(0-t) ([2]; 100 mg/kg/day): 1.90
accumulation ratio using AUC(0-t) ([2]; 150 mg/kg/day): 0.880
AUC(0-t) ([2]; Sprague Dawley Crl:CD, rat, in vivo, sc, AUC(0-t)): 2610 ng·h/mL
AUC(0-t) dose proportionality ([2]; rat, in vivo, sc, 75 mg/kg): increased in a dose-proportional manner
all other immune cell populations in the lung [3, 7]: similar
dendritic cells in the lung [3, 7]: increase
macrophages in the lung [3, 7]: slight, but statistically significant, decrease
macrophages in the lung [3, 8]: increased
neutrophils in the lung [3, 8]: decreased
nitric oxide (NO) production ([4]; co-treated with LPS): decreased
TNF-α production ([4]; co-treated with LPS, ELISA): decreased
IL-10 level ([4]; epithelial cells): No significant level
IL-β level ([4]; epithelial cells): No significant level
reactance (X7 hz) (pre-term lamb BPD model [5]; 3 mg/Kg, day of life 10): less reactance
small airway resistance (R7-20 hz) (pre-term lamb BPD model [5]; 3 mg/Kg, day of life 10): less small airway resistance
resistance (R7 hz; respiratory system) (pre-term lamb BPD model [5]; 3.0 mg/Kg, day of life 10, relative to placebo): lower resistance
resident/anti-inflammatory macrophages (Ly6c hi/low) ([6]; 48-72 h): produces more resident/anti-inflammatory macrophages
expression level of CD11b ([6]; 72 hrs, dose dependent manner): increased
expression level of MHC-II ([6]; 72 hrs, dose dependent manner): increased
